{
  "source": "the NIST ThermoML archive (doi:10.1016/j.jct.2015.12.023)",
  "test": "mn = molality of the nth substance listed, in mol/kg",
  "conditions": "100 kPa, Liquid; for speed of sound: Frequency=3 MHz, Sing-around technique in a fixed-path interferometer; for mass density: Vibrating tube method",
  "note": "Numbers after ± are expanded uncertainties.",
  "data": [
    {"smiles": "CCCC[N+](CCCC)(CCCC)CCCC.[I-]", "note": "[tetrabutylammonium iodide] + O", "values": [
      {"measurement": "speed of sound", "setting": "288.15 K, m1 = 0.01", "value": "1468.9 ± 1.3", "unit": "m/s"},
      {"measurement": "speed of sound", "setting": "288.15 K, m1 = 0.02", "value": "1471.3 ± 1.3", "unit": "m/s"},
      {"measurement": "speed of sound", "setting": "288.15 K, m1 = 0.03", "value": "1473.6 ± 1.3", "unit": "m/s"},
      {"measurement": "speed of sound", "setting": "288.15 K, m1 = 0.04", "value": "1475.8 ± 1.3", "unit": "m/s"},
      {"measurement": "mass density", "setting": "288.15 K, m1 = 0.01", "value": "1001.07 ± 2", "unit": "kg/m3"},
      {"measurement": "mass density", "setting": "288.15 K, m1 = 0.02", "value": "1001.64 ± 2", "unit": "kg/m3"},
      {"measurement": "mass density", "setting": "288.15 K, m1 = 0.03", "value": "1002.22 ± 2", "unit": "kg/m3"},
      {"measurement": "mass density", "setting": "288.15 K, m1 = 0.04", "value": "1002.83 ± 2", "unit": "kg/m3"},
      {"measurement": "speed of sound", "setting": "293.15 K, m1 = 0.01", "value": "1484.9 ± 1.3", "unit": "m/s"},
      {"measurement": "speed of sound", "setting": "293.15 K, m1 = 0.02", "value": "1487.1 ± 1.3", "unit": "m/s"},
      {"measurement": "speed of sound", "setting": "293.15 K, m1 = 0.03", "value": "1489.1 ± 1.3", "unit": "m/s"},
      {"measurement": "speed of sound", "setting": "293.15 K, m1 = 0.04", "value": "1491.3 ± 1.3", "unit": "m/s"},
      {"measurement": "mass density", "setting": "293.15 K, m1 = 0.01", "value": "1000.16 ± 2", "unit": "kg/m3"},
      {"measurement": "mass density", "setting": "293.15 K, m1 = 0.02", "value": "1000.72 ± 2", "unit": "kg/m3"},
      {"measurement": "mass density", "setting": "293.15 K, m1 = 0.03", "value": "1001.29 ± 2", "unit": "kg/m3"},
      {"measurement": "mass density", "setting": "293.15 K, m1 = 0.04", "value": "1001.88 ± 2", "unit": "kg/m3"},
      {"measurement": "speed of sound", "setting": "298.15 K, m1 = 0.01", "value": "1498.9 ± 1.3", "unit": "m/s"},
      {"measurement": "speed of sound", "setting": "298.15 K, m1 = 0.02", "value": "1500.9 ± 1.3", "unit": "m/s"},
      {"measurement": "speed of sound", "setting": "298.15 K, m1 = 0.03", "value": "1502.8 ± 1.3", "unit": "m/s"},
      {"measurement": "speed of sound", "setting": "298.15 K, m1 = 0.04", "value": "1504.7 ± 1.3", "unit": "m/s"},
      {"measurement": "mass density", "setting": "298.15 K, m1 = 0.01", "value": "998.97 ± 2", "unit": "kg/m3"},
      {"measurement": "mass density", "setting": "298.15 K, m1 = 0.02", "value": "999.53 ± 2", "unit": "kg/m3"},
      {"measurement": "mass density", "setting": "298.15 K, m1 = 0.03", "value": "1000.09 ± 2", "unit": "kg/m3"},
      {"measurement": "mass density", "setting": "298.15 K, m1 = 0.04", "value": "1000.67 ± 2", "unit": "kg/m3"},
      {"measurement": "speed of sound", "setting": "303.15 K, m1 = 0.01", "value": "1511.1 ± 1.3", "unit": "m/s"},
      {"measurement": "speed of sound", "setting": "303.15 K, m1 = 0.02", "value": "1512.9 ± 1.3", "unit": "m/s"},
      {"measurement": "speed of sound", "setting": "303.15 K, m1 = 0.03", "value": "1514.5 ± 1.3", "unit": "m/s"},
      {"measurement": "speed of sound", "setting": "303.15 K, m1 = 0.04", "value": "1516.3 ± 1.3", "unit": "m/s"},
      {"measurement": "mass density", "setting": "303.15 K, m1 = 0.01", "value": "997.53 ± 2", "unit": "kg/m3"},
      {"measurement": "mass density", "setting": "303.15 K, m1 = 0.02", "value": "998.07 ± 2", "unit": "kg/m3"},
      {"measurement": "mass density", "setting": "303.15 K, m1 = 0.03", "value": "998.61 ± 2", "unit": "kg/m3"},
      {"measurement": "mass density", "setting": "303.15 K, m1 = 0.04", "value": "999.19 ± 2", "unit": "kg/m3"},
      {"measurement": "speed of sound", "setting": "308.15 K, m1 = 0.01", "value": "1521.2 ± 1.3", "unit": "m/s"},
      {"measurement": "speed of sound", "setting": "308.15 K, m1 = 0.02", "value": "1522.9 ± 1.3", "unit": "m/s"},
      {"measurement": "speed of sound", "setting": "308.15 K, m1 = 0.03", "value": "1524.4 ± 1.3", "unit": "m/s"},
      {"measurement": "speed of sound", "setting": "308.15 K, m1 = 0.04", "value": "1526 ± 1.3", "unit": "m/s"},
      {"measurement": "mass density", "setting": "308.15 K, m1 = 0.01", "value": "995.95 ± 2", "unit": "kg/m3"},
      {"measurement": "mass density", "setting": "308.15 K, m1 = 0.02", "value": "996.49 ± 2", "unit": "kg/m3"},
      {"measurement": "mass density", "setting": "308.15 K, m1 = 0.03", "value": "997.02 ± 2", "unit": "kg/m3"},
      {"measurement": "mass density", "setting": "308.15 K, m1 = 0.04", "value": "997.58 ± 2", "unit": "kg/m3"}
    ]}
  ]
}
